{
  "source": "paper PMC3423427",
  "about": "“Design and Synthesis of Potent N-Acylethanolamine-hydrolyzing Acid Amidase (NAAA) Inhibitor as Anti-Inflammatory Compounds” (PLoS ONE, 2012)",
  "key": {"rat FAAH": {"biological_target": "T1, rat FAAH (Rattus norvegicus, UniProt P97612)", "T1 construct": "made in house; host or cells: HEK293 cells stably overexpressing rat FAAH (HEK293-rFAAH), a gift from D. Piomelli; crude cell extract", "T1 sequence (P97612 1-579)": "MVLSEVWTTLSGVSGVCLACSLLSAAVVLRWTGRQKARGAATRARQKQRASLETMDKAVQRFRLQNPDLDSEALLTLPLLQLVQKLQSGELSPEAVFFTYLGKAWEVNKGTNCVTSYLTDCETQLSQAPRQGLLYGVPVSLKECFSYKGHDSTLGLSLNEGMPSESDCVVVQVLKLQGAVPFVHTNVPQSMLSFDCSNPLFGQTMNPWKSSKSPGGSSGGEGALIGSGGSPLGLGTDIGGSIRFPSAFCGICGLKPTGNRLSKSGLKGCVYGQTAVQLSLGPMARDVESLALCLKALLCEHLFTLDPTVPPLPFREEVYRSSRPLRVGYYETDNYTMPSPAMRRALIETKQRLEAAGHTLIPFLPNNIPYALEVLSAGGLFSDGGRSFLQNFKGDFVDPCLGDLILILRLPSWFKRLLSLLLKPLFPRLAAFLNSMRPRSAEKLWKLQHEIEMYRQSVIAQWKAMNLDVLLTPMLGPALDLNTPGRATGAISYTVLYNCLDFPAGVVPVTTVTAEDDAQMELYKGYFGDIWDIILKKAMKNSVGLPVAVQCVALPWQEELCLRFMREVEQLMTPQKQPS", "assay": "FAAH enzymatic assay (recombinant rFAAH protein, LC/MS)", "assay_type": "biochemical", "method": "HEK293-rNAAA or HEK293-rFAAH cells were harvested, washed with PBS, sonicated in 20 mM Tris-HCl (pH 7.5) containing 0.32 M sucrose, and centrifuged at 800 × g for 15 min at 4°C. The supernatants were collected and protein concentrations were measured by BCA protein assay kit (Pierce, Shanghai, China). […] The reactions were terminated by adding 0.2 mL methanol containing 1 nmol heptadecanoic acid and analyzed in LC/MS.\nWe use an Agilent 1200-LC system coupled to a 3200Q TRAP-MS detector equipped with an ESI interface (Agilent Technologies, Shanghai, China). […] The column temperature was set at 40°C. […] Mass spectrometer (MS) detection was ionized by positive-ion atmospheric pressure chemical ionization mode (APCI^+) and monitored in MRM mode. […] Quantifications were calculated at chromatographic peak areas by using Analyst® version 1.4.1. software (Applied Biosystems)."}, "[1]": {"biological_target": "T2, N-acylsphingosine amidohydrolase (ASAH) (Homo sapiens, UniProt Q13510)", "T2 sequence (Q13510 22-395)": "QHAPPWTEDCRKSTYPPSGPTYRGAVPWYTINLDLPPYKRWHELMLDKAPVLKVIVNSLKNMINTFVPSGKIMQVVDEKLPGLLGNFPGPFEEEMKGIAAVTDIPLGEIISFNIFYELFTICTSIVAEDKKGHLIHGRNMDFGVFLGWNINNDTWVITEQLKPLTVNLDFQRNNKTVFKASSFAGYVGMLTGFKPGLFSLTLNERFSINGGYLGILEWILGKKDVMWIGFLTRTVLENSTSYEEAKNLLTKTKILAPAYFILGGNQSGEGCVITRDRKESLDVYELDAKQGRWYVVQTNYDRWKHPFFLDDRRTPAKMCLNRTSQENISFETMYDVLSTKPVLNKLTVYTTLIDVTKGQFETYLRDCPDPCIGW", "assay": "ASAH activity assay (Figure S1)", "assay_type": "biochemical", "conditions": "100 µM (Figure S1)", "experimental": "Supplementary file pone.0043023.s001.pdf: Figure S1 Effect of vehicle (open bar) and compound 16 (100 µM, closed bars) on the activity of NAAA, FAAH, MGL, and ASAH. ***, p<0.001, one-way ANOVA, n = 3. (PDF) Click here for additional data file."}, "[2]": {"conditions": "24 hr", "experimental": "To evaluate the biological and chemical stability of compound 16, we determined the degradation products of compound 16 in different chemical environments, as well as in rat plasma. First, chemical hydrolysis was evaluated at various pHs, i.e. pH 1.0 and pH 13.0. The hydrolytic product, biphenylpropanoic acid, if any, was detected by thin layer chromatography (TLC) after 24 hr incubation with 0.1 M HCl (pH 1.0) or […] (pH 13.0). […] Second, to test whether compound 16 was sensitive to thermal challenge, we placed compound 16 in 80°C incubator for 24 hr."}, "[3]": {"conditions": "80% rat plasma, 37°C", "experimental": "In terms of the biological stability test, rat plasma was usually chosen as reference in vitro model for drug stability studies, [20], [21]. The hydrolysis of compound 16 was studied in 80% rat plasma at 37°C physiological condition."}, "NAAA [4]": {"biological_target": "T3, NAAA (Rattus norvegicus, UniProt Q5KTC7)", "T3 sequence (Q5KTC7 34-362)": "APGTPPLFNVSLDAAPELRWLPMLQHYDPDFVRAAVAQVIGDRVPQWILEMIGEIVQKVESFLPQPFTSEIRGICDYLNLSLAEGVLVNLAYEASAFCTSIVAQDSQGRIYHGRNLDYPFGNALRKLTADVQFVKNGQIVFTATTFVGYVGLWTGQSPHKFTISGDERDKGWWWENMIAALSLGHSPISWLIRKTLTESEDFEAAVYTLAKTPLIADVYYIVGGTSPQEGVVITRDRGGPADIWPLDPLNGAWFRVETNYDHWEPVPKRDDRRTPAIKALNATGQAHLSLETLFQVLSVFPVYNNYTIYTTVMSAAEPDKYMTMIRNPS", "assay": "NAAA activity in intact HEK293 cells overexpressing NAAA", "assay_type": "cell-based", "conditions": "10 µM, 8 hr", "experimental": "(§1) HEK293 cells overexpressing rat NAAA (HEK293-rNAAA) and rat FAAH (HEK293-rFAAH) were kind gifts from Dr. Daniele Piomelli in University of California, Irvine. The stable-overexpressing cell lines were maintained in Dulbecco’s Modified Eagle Medium (DMEM, Hyclone, Beijing, China) supplemented with 10% FBS (Gibco®, Shanghai, China) containing 0.3 mg/mL G418. Mouse macrophage cells RAW264.7 and Human Embryonic Kidney cell HEK293 cells were purchased from American Type Culture Collection (ATCC, Beijing, China) and maintained in DMEM supplemented with 10% FBS in humidified 5% CO2 atmosphere at 37°C. RAW264.7 cells were plated and cultured overnight until 80% confluence and then incubated with a series of compound 16 of different concentrations for 30 min before challenged by LPS."}, "IL-6": {"test_system": "IL-6", "conditions": "RAW264.7, 0.5 µg/ml LPS", "experimental": "as §1\n(§2) Total RNA was extracted from RAW264.7 cells with TRIzol (Invitrogen) and quantified by spectrophotometer (Beckman coulter, Shanghai, China). cDNA was synthesized from 1 µg of total RNA by using ReverTra Ace qPCR RT Kit (TOYOBO, Shanghai, China) following the manufacturer’s instructions. Real-time quantitative PCR was performed in a 7300 Real Time PCR System (Applied Biosystems, Shanghai, China) and RNA levels were normalized using glyceraldehyde-3-phosphate dehydrogenase (GAPDH) as an internal standard."}, "iNOS": {"test_system": "iNOS", "conditions": "RAW264.7, 0.5 µg/ml LPS", "experimental": "as §1, §2"}, "NAAA [5]": {"biological_target": "T3, NAAA", "method": "HEK293-rNAAA or HEK293-rFAAH cells were harvested, washed with PBS, sonicated in 20 mM Tris-HCl (pH 7.5) containing 0.32 M sucrose, and centrifuged at 800 × g for 15 min at 4°C. The supernatants were collected and protein concentrations were measured by BCA protein assay kit (Pierce, Shanghai, China). NAAA activity was measured by incubating 30 µg recombinant rNAAA protein with testing compound at 37°C for 30 min in 0.2 mL phosphate buffer (50 mM, pH 5.0) containing 0.1% Triton X-100, 3 mM DTT, and 25 µM heptadecenoylethanolamide as substrate. […] The reactions were terminated by adding 0.2 mL methanol containing 1 nmol heptadecanoic acid and analyzed in LC/MS."}},
  "note": "Like-named read-outs stand apart in the source and are kept apart here.",
  "data": [
    {"compound": "O=C(CCc1ccc(-c2ccccc2)cc1)N1CCCC1", "note": "[Compound 16, 1–(2–Biphenyl–4–yl)ethyl–carbonyl pyrrolidine]", "values": [
      {"measurement": "IC50", "setting": "rat FAAH; IC50 ± S.E.M., triplicate, 25 µM anandamide, pH 8.0", "value": "> 100", "unit": "µM"},
      {"measurement": "reduction of FAAH activity", "setting": "rat FAAH; at concentration of 100 µM", "value": "no more than 30%"},
      {"measurement": "inhibitory effect on ASAH", "setting": "[1]", "value": "no inhibitory effect"},
      {"measurement": "stability, 0.1M HCl", "setting": "[2]; 0.1 M HCl (pH 1.0)", "value": 100, "unit": "%"},
      {"measurement": "hydrolytic product on TLC, acidic medium", "setting": "[2]; 0.1 M HCl (pH 1.0), TLC EtOAc/PE 1:2", "value": "no detectable biphenylpropanoic acid"},
      {"measurement": "hydrolytic product on TLC, basic medium", "setting": "[2]; 0.1 M NaCl (pH 13.0) as printed, TLC EtOAc/PE 1:2", "value": "no detectable biphenylpropanoic acid"},
      {"measurement": "stability, 80°C", "setting": "[2]; 80°C incubator", "value": 100, "unit": "%"},
      {"measurement": "degradation products on TLC after thermal challenge", "setting": "[2]; 80°C, TLC EtOAc/PE 1:2", "value": "no trace of biphenylpropanoic acid or other corresponding residuals"},
      {"measurement": "stability, 0.1NaOH", "setting": "[2]; basic medium (pH 13.0)", "value": 100, "unit": "%"},
      {"measurement": "compound remaining, Rat Serum 8h", "setting": "[3]", "value": 89, "unit": "%"},
      {"measurement": "compound remaining, Rat Serum 8h", "setting": "[3]; listed as compound 16", "value": 89, "unit": "%"},
      {"measurement": "compound remaining, Rat Serum 16h", "setting": "[3]", "value": 64, "unit": "%"},
      {"measurement": "compound remaining, Rat Serum 16h", "setting": "[3]; listed as compound 16", "value": 64, "unit": "%"},
      {"measurement": "inhibition on NAAA activity in intact cells", "setting": "NAAA [4]", "value": "more than 60%"},
      {"measurement": "LPS-induced IL-6 mRNA expression", "setting": "IL-6", "value": "reversed dose-dependently"},
      {"measurement": "LPS-induced iNOS mRNA expression", "setting": "iNOS", "value": "reversed dose-dependently"},
      {"measurement": "Vmax of NAAA activity", "setting": "NAAA [5]; 5µM compound 16, […], n = 3", "value": "5854 ± 511", "unit": "pmol/min/mg"},
      {"measurement": "mode of NAAA inhibition", "setting": "NAAA [5]; rapid dilution, dialysis and kinetic analysis", "value": "reversible and competitive"},
      {"measurement": "Km", "setting": "NAAA [5]; read-out: Michaelis-Menten constant Km, 5µM compound 16, […]", "value": "328 ± 98", "unit": "µM"},
      {"measurement": "Ki", "setting": "NAAA [5]; read-out: dissociation constant Ki, calculated from Km (inhibitor) = Km (1+[I]/Ki)", "value": 5.65, "unit": "µM"}
    ]}
  ]
}
